Test results from patent US20050043534A1, “Modulators of ceramidase and methods of used based thereon” (priority 2001, published 2005).
Values joined by “and” are separate entries in the source; they are usually repeats but may differ in a detail not shown here. Equal values may be shown once. “Also recorded” adds a separate entry of the source.

Biological target: mitochondrial ceramidase (Rattus norvegicus, UniProt Q91XT9)
Experiment: mitochondrial ceramidase (mt-CDase) activity, radioactive assay or HPLC assay
Assay type: biochemical
Conditions: for inhibition of mt-CDase activity: inhibitor at 0.6 mole %; for type of inhibition (double reciprocal analysis: Km increased, Vmax unchanged): varying D-erythro-ceramide concentration; for inhibition at 50 µM: read-out: inhibition (maximal inhibition) of mt-CDase activity; for IC50 (50% inhibition of mt-CDase activity): substrate D-erythro-ceramide 0.625 mole %; for effect on mt-CDase activity (in words): concentrations as stated at the place; for extent of inhibition of ceramidase: sphingosine stereoisomers at higher concentrations (FIG. 4b); for increase in ceramide hydrolysis: tested at 0-5 mole % (0-400 μM), [3H]-C16-ceramide 0.625 mole %; for IC50: substrate D-erythro-ceramide 50 μM
Procedure: The enzymatic activity of mitochondrial ceramidase was determined by either one of the two following methods:
a. Radioactive assay: The mt-CDase activity was determined by measuring the release of radioactive fatty acid from tritiated ceramide ([^3H]-C16-Cer), labeled in the acyl chain. Briefly, organic solutions of ceramide and its analogues were initially mixed together, solvents were completely evaporated under nitrogen, then the dried lipids were dispersed in Triton-X 100 by sonication and vigorous vortexing. The reaction assay contained (in a final volume of 200 μl): enzyme (5-10 ng) and 10 nmoles of tritiated C16-ceramide (1×10^5 dpm) delivered in 100 μl of 1% Triton X-100 micelles in a glycine buffer pH 9.5 (200 mM).
b. HPLC-assay: The Mt-CDase activity was also determined by measuring the amount of sphingosine released. Basically the assay was initially the same as described above but using non-radioactive ceramide. The reaction was stopped with 800 μl of chloroform: methanol (2:1 v/v) mixture followed by the addition of phyto-sphingosine (0.5 nmoles) and dihydro-sphingosine (1 nmole) as internal standard and carrier, respectively. The reaction mix was then extracted with NaOH (50 μl, 1N), and the lower chloroform layer containing the sphingosine was further washed with water (100 μl) and dried. The released sphingosine was quantified as the ortho-phthaldehyde (OPA) derivatives as described (30). […] The solvent system was methyl alcohol: potassium phosphate buffer (5 mM), pH 7.0 (90:10 v/v) at a flow rate of 1 ml/min. […] Activity was determined relative to the phytosphingosine OPA peak.
The effects of various compounds of the invention which are stereochemical and structural analogues of ceramide and sphingosine on mt-CDase were investigated. […] Results were expressed as percent of the control ceramidase activity.

[1] = Table 2, sphingosine analogues, hydrolysis of D-erythro-ceramide at 0.625 mole % (50 μM)
[2] = Table 1, ceramide analogues, hydrolysis of D-erythro-C16 or C18-ceramide at 0.625 mole % (50 μM)
[3] = inhibitor at 0.625 mole % (50 μM)

mitochondrial ceramidase, sequence (Q91XT9 whole entry): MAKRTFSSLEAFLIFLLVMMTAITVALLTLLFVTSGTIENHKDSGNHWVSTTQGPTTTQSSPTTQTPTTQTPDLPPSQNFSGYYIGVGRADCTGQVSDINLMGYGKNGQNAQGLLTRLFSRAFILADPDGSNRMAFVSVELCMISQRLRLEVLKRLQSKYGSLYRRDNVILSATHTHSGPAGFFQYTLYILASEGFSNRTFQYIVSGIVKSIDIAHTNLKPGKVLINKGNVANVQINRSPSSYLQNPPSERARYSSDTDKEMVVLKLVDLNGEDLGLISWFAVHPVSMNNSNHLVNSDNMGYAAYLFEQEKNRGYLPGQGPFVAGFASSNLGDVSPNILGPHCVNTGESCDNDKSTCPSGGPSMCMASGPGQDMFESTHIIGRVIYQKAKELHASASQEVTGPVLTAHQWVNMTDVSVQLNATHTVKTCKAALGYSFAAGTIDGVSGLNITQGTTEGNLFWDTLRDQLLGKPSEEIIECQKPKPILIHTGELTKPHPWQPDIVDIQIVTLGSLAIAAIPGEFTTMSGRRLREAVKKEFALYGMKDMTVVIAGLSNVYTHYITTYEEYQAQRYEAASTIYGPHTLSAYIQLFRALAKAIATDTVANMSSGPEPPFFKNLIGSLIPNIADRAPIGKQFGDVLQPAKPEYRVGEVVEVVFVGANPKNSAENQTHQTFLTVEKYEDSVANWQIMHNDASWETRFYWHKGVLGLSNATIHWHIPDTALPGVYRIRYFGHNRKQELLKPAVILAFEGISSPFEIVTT

Molecule | Estimated IC50 (mole %) [2] | IC50 (50% inhibition of mt-CDase activity) | effect on mt-CDase activity (in words) | Estimated IC50 (mole %) [1] | further results
CCCCCCCCCCCCC/C=C/[C@@H](OC)[C@@H](N)CO [Compound 3-O-Me-Sph, 3-O-methyl-D-erythro-sphingosine] | – | – | – | no effect | inhibition of mt-CDase activity: no effect
CCCCCCCCCCCCC/C=C/[C@@H](O)[C@H](CO)NCCCCCCCCCCCCCCCCCC [Compound C18-Ceramine, N-stearyl-D-erythro-sphingosine] | – | – | – | 0.5 mole % | inhibition at 100 µM (inhibitor at 1.25 mole % (100 μM)): 75%; type of inhibition (double reciprocal analysis: Km increased, Vmax unchanged): competitive inhibitor
CCCCCCCCCCCCC/C=C/C(=O)[C@H](CO)NC(=O)CCCCCCCCCCCCCCC [3-keto-C16-Cer, 3-keto-C16-ceramide] | 0.6 mole % | 0.60 mole % | – | – | hydrolysis by mt-CDase (substrate or not, in words): served as a substrate; inhibition at 50 µM [3]: 53%; type of inhibition (double reciprocal analysis: Km increased, Vmax unchanged): competitive substrate
CCCCCCCCCCCCC/C=C\[C@@H](O)[C@@H](N)CO [cis-D-e-Sph, cis-D-erythro-sphingosine] | – | – | weaker; also recorded: no effect; also recorded: weak inhibitor | weak | maximal inhibition of ceramide hydrolysis (at higher concentrations, greater than 2 mole %): 32%; inhibition at 50 µM [3]: 10%
CCCCCCCCCCCCC/C=C/[C@H](O)[C@H](N)CO [L-e-Sph, L-erythro-sphingosine] | – | – | – | 0.09 mole % | extent of inhibition of ceramidase: 98%
CCCCCCCCCCCCC/C=C/[C@@H](O)[C@@H](N)COP(=O)(O)O [Sph-1-P, D-erythro-sphingosine 1-phosphate] | – | – | – | activator | increase in ceramide hydrolysis: 180%
dihydroceramide [reference compound] | – | – | – | – | hydrolysis by mt-CDase (substrate or not, in words): significant loss of activity as a substrate
CCCCCCCCCCCCC/C=C/[C@@H](O)[C@H](COC)NC(=O)CCCCCCCCCCCCCCC [1-O-Me-C16-Cer, 1-O-methyl-D-erythro-C16-ceramide] | no effect | – | – | – | effect on mt-CDase activity (in words) (listed as 1-O-Me-ceramide): do not interact with the enzyme; effect on mt-CDase activity (in words) (listed as 1-O-methyl ceramide): no effect
CCCCCCCCCCCCC/C=C/[C@@H](O)[C@@H](N)CO [D-e-Sph, D-erythro-sphingosine, reference compound] | – | 0.04 mole % | – | 0.04 mole % | inhibition of mt-CDase activity: totally inhibited; inhibition at 50 µM [3]: 98%; IC50: 3.3 µM
CCCCCCCCCCCCC/C=C/[C@@H](OC)[C@H](CO)NC(=O)CCCCCCCCCCCCCCC [3-O-Me-C16-Cer, 3-O-methyl-D-erythro-C16-ceramide] | no effect | – | – | – | effect on mt-CDase activity (in words) (listed as 3-O-Me-ceramide): do not interact with the enzyme; effect on mt-CDase activity (in words) (listed as 3-O-methyl ceramide): no effect
CCCCCCCCCCCCC/C=C/[C@@H](O)[C@@H](N)COC [Compound 1-O-Me-Sph, 1-O-methyl-D-erythro-sphingosine] | – | – | weaker | weak | inhibition of mt-CDase activity: ~25%
CCCCCCCCCCCCC/C=C/[C@@H](O)[C@H](N)CO [D-t-Sph, D-threo-sphingosine] | – | – | – | 0.11 mole % | extent of inhibition of ceramidase: 75%
CCCCCCCCCCCCC/C=C/[C@@H](O)[C@H](COP(=O)(O)O)NC(=O)CCCCCCCCCCCCCCC [Cer-1-P, D-erythro-C16-ceramide-1-phosphate] | activator | – | do not interact with the enzyme | – | increase in ceramide hydrolysis: 220%
CCCCCCCCCCCCCC#CC(=O)[C@@H](N)CO [3-keto-deh-Sph, 3-keto-dehydrosphingosine] | – | – | weaker | weak | inhibition at 50 µM [3]: 15%
CCCCCCCCCCCCCCC[C@@H](O)[C@@H](N)CO [D-e-dh-Sph, D-erythro-dihydrosphingosine] | – | 0.20 mole % and 0.34 mole % | – | 0.34 mole % | –
CCCCCCCCCCCCC/C=C/[C@@H](O)[C@H](CO)NC [N-Me-Sph, N-methyl-D-erythro-sphingosine] | – | 0.13 mole % | – | 0.13 mole % | inhibitory effect on mt-CDase (FIG. 6a, concentration not stated directly): 75%
CCCCCCCCCCCCC/C=C/[C@@H](O)[C@H](CO)N(C)C [N,N-diMe-Sph, N,N-dimethyl-D-erythro-sphingosine] | – | – | weaker; also recorded: profound loss of activity | weak | maximal inhibition of mt-CDase (inhibitor at 2.5 mole %): 30%
CCCCCCCCCCCCCCCC(=O)C(N)CO (stereo not shown) [3-keto-dh-Sph, 3-keto-dihydrosphingosine] | – | 0.34 mole % | potent inhibitor | 0.2 mole % | inhibition (maximal inhibition) of mt-CDase activity [3]: 75%
CCCCCCCCCCCCC/C=C/[C@H](O)[C@@H](N)CO [L-t-Sph, L-threo-sphingosine] | – | – | – | 0.14 mole % | extent of inhibition of ceramidase: 60%
CCCCCCCCCCCCC/C=C/C(=O)[C@@H](N)CO [Compound 3-keto-Sph, 3-keto-sphingosine] | – | – | weaker; also recorded: significant loss of inhibition | weak | inhibition at 50 µM [3]: 35%
ceramide [reference compound] | – | – | – | – | Km of hydrolysis (ceramide as substrate): 1.3 mole %

Further lines, with some results ahead:

Estimated IC50 (mole %) [2] | IC50 (50% inhibition of mt-CDase activity) | effect on mt-CDase activity (in words) | Molecule | Estimated IC50 (mole %) [1] | further results
no effect | – | no significant effect | CCCCCCCCCCCCC/C=C\[C@@H](O)[C@H](CO)NC(=O)CCCCCCCCCCCCCCC [cis-D-e-C16-Cer, cis-D-erythro-C16-ceramide] | – | effect on mt-CDase activity (in words) (listed as cis D-erythro-ceramide): did not inhibit the enzyme; effect on mt-CDase activity (in words) (listed as cis-D-e-ceramide): do not interact with the enzyme
no effect | – | – | CCCCCCCCCCCCC/C=C/[C@@H](O)[C@H](CO)N(C)C(=O)CCCCCCCCCCCCCCC [N-Me-C16-Cer, N-methyl-D-erythro-C16-ceramide] | – | effect on mt-CDase activity (in words) (listed as N-Me-Cer): loss of the interaction; effect on mt-CDase activity (in words) (listed as N-Me-ceramide): do not interact with the enzyme; effect on mt-CDase activity (in words) (listed as N-methyl-ceramide): did not affect ceramidase activity
– | – | no significant variation | CCCCCCCCCCCCCCCC(=O)O [palmitic acid, reference compound] | – | –
0.11 mole % | 0.11 mole % | – | CCCCCCCCCCCCC/C=C/[C@H](O)[C@H](CO)NC(=O)CCCCCCCCCCCCCCCCC [L-t-C18-Cer, L-threo-C18-ceramide] | – | IC50: 8.8 µM
0.26 mole % | 0.26 mole % | – | CCCCCCCCCCCCC/C=C/[C@H](O)[C@@H](CO)NC(=O)CCCCCCCCCCCCCCCCC [L-e-C18-Cer, L-erythro-C18-ceramide] | – | IC50: 20 µM; type of inhibition (double reciprocal analysis: Km increased, Vmax unchanged): competitive
– | 0.25 mole % | – | CCCCCCCCCCCCCC#C[C@@H](O)[C@@H](N)CO [D-e-deh-Sph, D-erythro-dehydrosphingosine] | 0.25 mole % | inhibition at 50 µM [3]: 75%
substrate | – | – | CCCCCCCCCCCCC/C=C/[C@@H](O)[C@H](CO)NC(=O)CCCCCCCCCCCCCCCCC [D-e-C18-Cer, D-erythro-C18-ceramide, reference compound] | – | –
0.21 mole % | 0.21 mole % | – | CCCCCCCCCCCCC/C=C/[C@@H](O)[C@@H](CO)NC(=O)CCCCCCCCCCCCCCCCC [D-t-C18-Cer, D-threo-C18-ceramide] | – | IC50: 16.6 µM
